Experimental data published in PubChem BioAssay (NCI).
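Where inhibition never reached the appropriate level, the endpoint shown equals the highest concentration tested. Otherwise, values were interpolated linearly from a five-concentration, 48-hour dose response in 96-well plates. TGI denotes the concentration required for complete inhibition of growth.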

Assays:
Assay in all cases: NCI tumour cell line growth inhibition, 48 h
DMS 273 small cell lung = system: DMS 273 small cell lung
SN12C renal = system: SN12C renal
HOP-62 NSCLC = system: HOP-62 NSCLC
NCI-H522 lung = system: NCI-H522 lung
EKVX NSCLC = system: EKVX NSCLC
HCC-2998 colon = system: HCC-2998 colon
MCF7 breast = system: MCF7 breast
SN12K1 renal = system: SN12K1 renal
NCI-H460 lung = system: NCI-H460 lung
A549 NSCLC = system: A549 NSCLC
P388/ADR leukemia = system: P388/ADR leukemia
HOP-92 NSCLC = system: HOP-92 NSCLC
XF 498 CNS = system: XF 498 CNS
DLD-1 colon = system: DLD-1 colon
SF-295 CNS = system: SF-295 CNS
DMS 114 small cell lung = system: DMS 114 small cell lung
KM20L2 colon = system: KM20L2 colon
SF-539 CNS = system: SF-539 CNS
SK-MEL-5 melanoma = system: SK-MEL-5 melanoma
COLO 205 colon = system: COLO 205 colon
UO-31 renal = system: UO-31 renal
K-562 leukemia = system: K-562 leukemia
CCRF-CEM leukemia = system: CCRF-CEM leukemia
OVCAR-8 ovarian = system: OVCAR-8 ovarian
OVCAR-4 ovarian = system: OVCAR-4 ovarian
CAKI-1 renal = system: CAKI-1 renal
MALME-3M melanoma = system: MALME-3M melanoma
NCI/ADR-RES ovarian = system: NCI/ADR-RES ovarian
LOX IMVI melanoma = system: LOX IMVI melanoma
SNB-78 CNS = system: SNB-78 CNS
SK-MEL-28 melanoma = system: SK-MEL-28 melanoma
HOP-18 NSCLC = system: HOP-18 NSCLC
SF-268 CNS = system: SF-268 CNS
SW-620 colon = system: SW-620 colon
A498 renal = system: A498 renal
NCI-H226 lung = system: NCI-H226 lung
OVCAR-5 ovarian = system: OVCAR-5 ovarian
SK-MEL-2 melanoma = system: SK-MEL-2 melanoma
OVCAR-3 ovarian = system: OVCAR-3 ovarian
SNB-75 CNS = system: SNB-75 CNS
UACC-257 melanoma = system: UACC-257 melanoma
RXF 393 renal = system: RXF 393 renal
HT29 colon = system: HT29 colon
HL-60(TB) leukemia = system: HL-60(TB) leukemia
SK-OV-3 ovarian = system: SK-OV-3 ovarian
IGROV1 ovarian = system: IGROV1 ovarian
M19-MEL melanoma = system: M19-MEL melanoma
SNB-19 CNS = system: SNB-19 CNS
NCI-H23 lung = system: NCI-H23 lung
HCT-116 colon = system: HCT-116 colon
U251 CNS = system: U251 CNS
HCT-15 colon = system: HCT-15 colon
UACC-62 melanoma = system: UACC-62 melanoma
KM12 colon = system: KM12 colon
TK-10 renal = system: TK-10 renal
786-0 renal = system: 786-0 renal
SR leukemia = system: SR leukemia
LXFL 529 NSCLC = system: LXFL 529 NSCLC
MOLT-4 leukemia = system: MOLT-4 leukemia
RXF-631 renal = system: RXF-631 renal
M14 melanoma = system: M14 melanoma
RPMI-8226 leukemia = system: RPMI-8226 leukemia
ACHN renal = system: ACHN renal

O=C1c2cccc3cc4ccccc4c(c23)C(=O)N1CCNCCN1C(=O)c2cccc3cc4ccccc4c(c23)C1=O was tested, and the TGI (DMS 273 small cell lung) was 1 µM, the TGI (SN12C renal) was 1.59 µM and the TGI (HOP-62 NSCLC) was 4.92 µM. It also gave a TGI (NCI-H522 lung) of 3.6 µM, a TGI (EKVX NSCLC) of 2.23 µM and a TGI (HCC-2998 colon) of 2.23 µM. The TGI (MCF7 breast) was 5.17 µM, the TGI (SN12K1 renal) was 6.96 µM and the TGI (NCI-H460 lung) was 0.278 µM. It also gave a TGI (A549 NSCLC) of 0.982 µM, a TGI (P388/ADR leukemia) of 0.611 µM and a TGI (HOP-92 NSCLC) of 1.75 µM. For the same compound, the TGI (XF 498 CNS) was 0.82 µM, the TGI (DLD-1 colon) was 3.8 µM and the TGI (SF-295 CNS) was 0.906 µM. For the same compound, the TGI (DMS 114 small cell lung) was 0.78 µM, the TGI (KM20L2 colon) was 2.22 µM and the TGI (SF-539 CNS) was 2.2 µM. The TGI (SK-MEL-5 melanoma) was 1.84 µM, the TGI (COLO 205 colon) was 2.22 µM and the TGI (UO-31 renal) was 1.57 µM. It also gave a TGI (K-562 leukemia) of 1.47 µM, a TGI (CCRF-CEM leukemia) of 1.04 µM and a TGI (OVCAR-8 ovarian) of 2.31 µM. It also gave a TGI (OVCAR-4 ovarian) of 2.14 µM, a TGI (CAKI-1 renal) of 1.04 µM and a TGI (MALME-3M melanoma) of 1.77 µM. For the same compound, the TGI (NCI/ADR-RES ovarian) was 3.11 µM, the TGI (LOX IMVI melanoma) was 1.27 µM and the TGI (SNB-78 CNS) was 1.82 µM. The TGI (SK-MEL-28 melanoma) was 2.65 µM, the TGI (HOP-18 NSCLC) was 0.879 µM and the TGI (SF-268 CNS) was 2.55 µM. For the same compound, the TGI (SW-620 colon) was 1.87 µM, the TGI (A498 renal) was 2.26 µM and the TGI (NCI-H226 lung) was 6.12 µM. It also gave a TGI (OVCAR-5 ovarian) of 1.77 µM, a TGI (SK-MEL-2 melanoma) of 3.15 µM and a TGI (OVCAR-3 ovarian) of 2.41 µM. The TGI (SNB-75 CNS) was 1.27 µM, the TGI (UACC-257 melanoma) was 2.74 µM and the TGI (RXF 393 renal) was 1.82 µM. The TGI (HT29 colon) was 1.69 µM, the TGI (HL-60(TB) leukemia) was 0.619 µM and the TGI (SK-OV-3 ovarian) was 5.8 µM. It also gave a TGI (IGROV1 ovarian) of 3.56 µM, a TGI (M19-MEL melanoma) of 1.78 µM and a TGI (SNB-19 CNS) of 2.11 µM. The TGI (NCI-H23 lung) was 1.21 µM, the TGI (HCT-116 colon) was 1.98 µM and the TGI (U251 CNS) was 1.24 µM. It also gave a TGI (HCT-15 colon) of 1.53 µM and a TGI (UACC-62 melanoma) of 1.13 µM.
[O-][n+]1c(-c2ccccc2)oc2ccccc21 showed a TGI (DMS 273 small cell lung) of 28 µM, a TGI (SN12C renal) of 29 µM and a TGI (HOP-62 NSCLC) of 35.2 µM. The TGI (NCI-H522 lung) was 17.5 µM, the TGI (EKVX NSCLC) was 63 µM and the TGI (HCC-2998 colon) was 37.8 µM. For the same compound, the TGI (NCI-H460 lung) was 20.2 µM, the TGI (A549 NSCLC) was 17.9 µM and the TGI (HOP-92 NSCLC) was over 100 µM. The TGI (XF 498 CNS) was over 100 µM, the TGI (KM12 colon) was over 100 µM and the TGI (DLD-1 colon) was over 59.5 µM. For the same compound, the TGI (SF-295 CNS) was 27.6 µM, the TGI (DMS 114 small cell lung) was 16.4 µM and the TGI (KM20L2 colon) was 43.1 µM. For the same compound, the TGI (TK-10 renal) was 47.7 µM, the TGI (SF-539 CNS) was 31.5 µM and the TGI (786-0 renal) was 62.4 µM. It also gave a TGI (SK-MEL-5 melanoma) of 6.81 µM, a TGI (COLO 205 colon) of 33.6 µM and a TGI (UO-31 renal) of 40.3 µM. The TGI (K-562 leukemia) was over 100 µM, the TGI (CCRF-CEM leukemia) was over 100 µM and the TGI (OVCAR-8 ovarian) was over 100 µM. The TGI (OVCAR-4 ovarian) was over 68 µM, the TGI (CAKI-1 renal) was over 55.7 µM and the TGI (MALME-3M melanoma) was 28.1 µM. It also gave a TGI (LOX IMVI melanoma) of 15.7 µM, a TGI (SNB-78 CNS) of 97.1 µM and a TGI (SK-MEL-28 melanoma) of 36.6 µM. The TGI (HOP-18 NSCLC) was 20.1 µM, the TGI (SF-268 CNS) was over 100 µM and the TGI (SW-620 colon) was 39.1 µM. For the same compound, the TGI (SR leukemia) was over 100 µM, the TGI (A498 renal) was 34.8 µM and the TGI (NCI-H226 lung) was over 100 µM. For the same compound, the TGI (OVCAR-5 ovarian) was 67.1 µM, the TGI (LXFL 529 NSCLC) was over 94.4 µM and the TGI (SK-MEL-2 melanoma) was 40.4 µM. The TGI (MOLT-4 leukemia) was over 100 µM, the TGI (OVCAR-3 ovarian) was 65.9 µM and the TGI (SNB-75 CNS) was 32.7 µM. For the same compound, the TGI (UACC-257 melanoma) was 22.6 µM, the TGI (RXF 393 renal) was 55.6 µM and the TGI (RXF-631 renal) was over 100 µM. It also gave a TGI (HT29 colon) of 59.1 µM, a TGI (HL-60(TB) leukemia) of 79.9 µM and a TGI (SK-OV-3 ovarian) of over 100 µM. For the same compound, the TGI (IGROV1 ovarian) was over 100 µM, the TGI (M14 melanoma) was 24.8 µM and the TGI (M19-MEL melanoma) was 3.59 µM. The TGI (RPMI-8226 leukemia) was over 69.2 µM, the TGI (SNB-19 CNS) was over 65.1 µM and the TGI (NCI-H23 lung) was 38.7 µM. It also gave a TGI (HCT-116 colon) of 41.9 µM, a TGI (U251 CNS) of over 85.8 µM and a TGI (HCT-15 colon) of 24.3 µM. It also gave a TGI (UACC-62 melanoma) of 23.1 µM and a TGI (ACHN renal) of 39.4 µM.
